Results as given in patent publication US20100135905A1, “ASSESSMENT OF CANCER SUSCEPTIBILITY TO MOLECULAR TARGETED THERAPY BY USE OF RECOMBINANT PEPTIDES” (priority 2004, published 2010).
No end group written: not given here.

Tests used:
GL261 tumors [1] = experiment: TUNEL stain of intracranial GL261 glioblastoma tumors; format: in vivo, C57BL/6 mice
Description: The response of cancer cells within the intracranial glioblastoma tumor model, GL261, was also tested in mice. GL261 tumors were implanted into the brains of C57BL/6 mice. After tumor formation (seven days later), mice were treated with GLEEVEC®, 4 Gy or both GLEEVEC® and 4 Gy. Tumors were sectioned and assayed with TUNEL stain to identify apoptotic nuclei. […] The pharmacodynamic response (such as apoptosis) in tumors treated with GLEEVEC® correlated with tumor growth delay.

[2] = test system: tumor vascular endothelium; conditions: Geng et al., 2001; Lu et al., 2004; cited from earlier work
[3] = molecular target: T1, GP-IIb/IIIa receptors on activated platelets (Homo sapiens, UniProt P05106+P08514); experiment: Clinical gamma camera/SPECT imaging of 99mTc-labeled bibapcitide in irradiated tumors; format: in vivo, patients
T1 construct: from tissue
T1 sequence (P08514 32-887 limits assumed): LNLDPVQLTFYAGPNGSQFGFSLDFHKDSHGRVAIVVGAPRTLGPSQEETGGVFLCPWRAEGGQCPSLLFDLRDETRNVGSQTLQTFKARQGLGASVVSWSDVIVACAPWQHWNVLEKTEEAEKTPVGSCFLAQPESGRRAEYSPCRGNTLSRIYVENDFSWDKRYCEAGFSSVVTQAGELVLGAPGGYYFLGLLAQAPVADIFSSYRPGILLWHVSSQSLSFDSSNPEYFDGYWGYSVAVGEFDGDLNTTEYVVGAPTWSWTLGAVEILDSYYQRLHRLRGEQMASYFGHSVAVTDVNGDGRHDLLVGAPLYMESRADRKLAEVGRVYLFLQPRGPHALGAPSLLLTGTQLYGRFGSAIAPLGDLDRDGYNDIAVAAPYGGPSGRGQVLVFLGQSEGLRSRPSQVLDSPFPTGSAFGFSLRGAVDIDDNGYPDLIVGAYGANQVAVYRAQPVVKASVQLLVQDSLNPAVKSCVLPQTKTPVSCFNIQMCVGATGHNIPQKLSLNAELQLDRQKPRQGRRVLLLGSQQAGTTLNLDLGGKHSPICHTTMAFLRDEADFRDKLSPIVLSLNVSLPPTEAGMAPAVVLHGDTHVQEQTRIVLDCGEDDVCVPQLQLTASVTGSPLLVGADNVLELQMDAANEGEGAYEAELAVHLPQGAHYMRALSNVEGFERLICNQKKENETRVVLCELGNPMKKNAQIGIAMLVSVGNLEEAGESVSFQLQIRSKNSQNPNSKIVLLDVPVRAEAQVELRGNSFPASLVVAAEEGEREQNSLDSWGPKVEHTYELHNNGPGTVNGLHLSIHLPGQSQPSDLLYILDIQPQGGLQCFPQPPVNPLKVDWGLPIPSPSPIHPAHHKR
T1 sequence (P08514 891-1039 partner limits assumed): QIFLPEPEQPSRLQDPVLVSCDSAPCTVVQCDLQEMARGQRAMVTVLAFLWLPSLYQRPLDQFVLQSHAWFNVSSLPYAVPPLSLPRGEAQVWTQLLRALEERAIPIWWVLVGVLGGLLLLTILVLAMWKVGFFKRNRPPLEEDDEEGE
T1 sequence (P05106 27-788): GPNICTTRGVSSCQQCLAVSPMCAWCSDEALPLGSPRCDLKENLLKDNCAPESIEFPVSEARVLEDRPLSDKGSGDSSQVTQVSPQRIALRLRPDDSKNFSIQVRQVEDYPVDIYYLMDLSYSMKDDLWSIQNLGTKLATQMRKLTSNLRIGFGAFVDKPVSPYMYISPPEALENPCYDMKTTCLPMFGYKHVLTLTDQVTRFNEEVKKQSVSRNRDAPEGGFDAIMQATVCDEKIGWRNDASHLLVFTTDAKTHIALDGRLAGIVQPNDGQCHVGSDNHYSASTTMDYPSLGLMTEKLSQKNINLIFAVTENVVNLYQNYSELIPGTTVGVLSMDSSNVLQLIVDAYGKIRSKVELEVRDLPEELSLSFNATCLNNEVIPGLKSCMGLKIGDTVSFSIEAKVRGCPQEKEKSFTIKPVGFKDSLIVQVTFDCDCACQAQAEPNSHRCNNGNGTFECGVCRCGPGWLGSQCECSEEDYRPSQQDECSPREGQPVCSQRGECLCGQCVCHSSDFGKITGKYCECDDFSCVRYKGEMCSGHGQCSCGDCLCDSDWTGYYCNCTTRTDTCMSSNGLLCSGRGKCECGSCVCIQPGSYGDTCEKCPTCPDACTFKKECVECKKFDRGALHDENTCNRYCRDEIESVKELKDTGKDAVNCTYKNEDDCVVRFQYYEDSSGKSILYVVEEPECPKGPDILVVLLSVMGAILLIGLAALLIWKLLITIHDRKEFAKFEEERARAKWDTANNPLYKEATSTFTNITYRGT
Description: Ligand Preparation and Administration. Bibapcitide (ACUTECT™, available from Diatide, Inc. of Londonderry, N.H., United States of America) is a synthetic peptide that binds to GP-IIb/IIIa receptors on activated platelets (Hawiger et al., 1989; Hawiger & Timmons, 1992). Bibapcitide was labeled with ^99mTc in accordance with a protocol provided by Diatide Inc.
Reconstituted ^99mTc-labeled bibapcitide was administered to patients at a dose of 100 μg of bibapcitide radiolabeled with 10 mCi of ^99mTc. […] Patients underwent gamma camera imaging prior to irradiation and 24 hours following irradiation.
Following planar image acquisition, those patients showing uptake in irradiated tumors underwent tomographic imaging using SPECT and repeat imaging at 24 hours. Patients showing no uptake on planer images during this 24-hour time frame had no further imaging.
Patients were treated with X-irradiation ranging from 4 to 18 MV photon using external beam linear accelerator at Vanderbilt University. Appropriate blocks, wedges, and bolus to deliver adequate dose to the planned target volume was utilized. The site of irradiation, treatment intent, and normal tissue considerations determined the radiation dosage and volume. When stereotactic radiosurgery was used, the dose was prescribed to the tumor periphery.
Image Analysis. Image acquisition consisted of both planar and single photon emission computed tomography (SPECT) studies. Planar studies were performed on a dual-head gamma camera (Millennium VG-Variable Geometry model available from General Electric Medical Systems of Milwaukee, Wis., United States of America) equipped with low energy high-resolution (LEUR) collimators. This type of collimator represents a compromise between sensitivity (photon counting efficiency) and image resolution. Planar nuclear medicine images were acquired with a 256×256 acquisition matrix (pixel size approximately 0.178 cm/pixel) for 10 minutes. In order to maximize collimator-gamma camera system sensitivity the source-to-detector surface distance was minimized to the extent that patient geometry allows. The spatial distribution of […] within the planar image was measured using region-of-interest (ROI) analysis. Two different size ROIs (5×5 pixel, and 15×15 pixel) was used in both the tumor and surrounding organs and tissues in the patient. The rationale for using ROIs with different dimensions is to be able to quantify image counts while at the same time isolating any possible influence of ROI size on the results. Tumor-to-background ratios were computed as the ratio of average counts in the tumor region divided by average counts in surrounding organs and tissues, each corrected for background. Background counts was determined based on ROI analysis of a separate planar acquisition performed in the absence of a radioactive source.
Three-dimensional nuclear medicine SPECT examinations were performed using the same dual-head gamma camera system. Each SPECT study comprised a 360 scan acquired with a step-and-shoot approach utilizing the following acquisition parameters: three increments between views, a 256×256×64 acquisition matrix, LEUR collimation and 60 seconds per view. […] SPECT tumor-to-background ratios were computed using quantitative ROI techniques identical to the planar studies. […]

LLC and GL261 tumors = experiment: Conserved motifs within phage peptides recovered by in vivo panning from both tumor models; set-up: species or system mice; conditions: for Frequency of Recovery of conserved sequence: share of phage peptides recovered from irradiated tumors that contain the sequence
Description: (§1) For in vivo panning, tumors were irradiated with 3 Gy and approximately 10^10 phage (prepared as described in Example 1) were administered by tail vein injection into each of the tumor bearing mice at 4 hours following irradiation. Tumors were recovered at one hour following injection and amplified in BL21 bacteria. Amplified phage were pooled and re-administered to a tumor-bearing mouse following tumor irradiation. The phage pool was sequentially administered to a total of 6 animals. As a control, wild type phage lacking synthetic peptide inserts were identically administered to a second experimental group of animals.
(§2) Following six rounds of in vivo panning, fifty recombinant phage peptides that bound within irradiated tumors were randomly selected for further analysis. The nucleic acid sequence encoding recombinant phage was amplified by PCR using primers set forth as SEQ ID NOs: 20-21 (available from Novagen Brand, a unit of EMD Biosciences, Inc., Madison, Wis.). An individual phage suspension was used as template. Amplified peptides were sequenced using an ABI PRISM® 377 sequencer (Applied Biosystems of Foster City, Calif., United States of America).
The amino acid sequences of all phage that were recovered from both tumors were studied in order to identify homologous sequences (Table 2). The most commonly recovered phage peptide had amino acid sequence HVGGSSV (SEQ ID NO: 1), and the second most common sequence was […] (SEQ ID NO: 2). The probability of recovering these peptide sequences from both tumor subtypes is 625/10^14 for each of the peptide sequences. The peptide sequence GSSV (SEQ ID NO: 9) was present in 58% of the phage recovered from tumors. Homology between peptides recovered from LLC and GL261 included 100% homology in […] (SEQ ID NO: 2) and 70% homology in RGSGSRV (SEQ ID NO.: 12). Of interest is a 6 amino acid homology spanning over 8 amino acids that include amino acids SXRGXGS (SEQ ID NO: 13), which was recovered from 28% of all phage in 2 tumor models (p<0.0001). The probability of having six identical amino acids by chance is 6^−24.

[4] = test system: responding tumor blood vessels; experiment: Biotinylated peptide binding in tumor blood vessels, FITC-avidin fluorescent microscopy; format: in vivo, mice
Description: The amino acid sequence RGXGSXV (SEQ ID NO: 18) was found in 41% of phage recovered from treated LLC tumors. To determine the pattern of RGDGSSV (SEQ ID NO: 10) peptide binding within responding tumor blood vessels, biotinylated peptide was administered by tail vein injection. Tumors were implanted into both hind limbs of mice. The right tumor was irradiated according to Example 2, and the left served as an untreated internal negative control. Biotinylated peptide was administered by tail vein injection immediately prior to tumor irradiation.

LLC tumors = experiment: In vivo panning of T7 phage peptide library: phage recovered from irradiated LLC tumors; set-up: species or system mice
Description: (§3) GL261 murine glioma cells and Lewis lung carcinoma (LLC) cells were implanted into the hind limb of C57BL/6 mice (see Hallahan et al., 1995b; Hallahan et al., 1998; Hallahan & Virudachalam, 1999).
as §1
(§4) To determine the titer of phage binding in a tumor or in normal tissue, recovered phage were amplified in BL21 bacteria. Bacteria were plated and the number of plaques present was counted. To determine the total phage output per organ, the number of plaque forming units (PFU) on each plate was divided by the volume of phage plated and the weight of each organ. Normal variation was observed as a 2-fold difference in PFU. In the present Example, background binding within tumor blood vessels was approximately 10^4 phage. Phage that bound to the vasculature within irradiated tumors show enrichment in the tumor relative to other organs and enrichment in the irradiated tumor relative to the control phage without DNA insert.
as §2

GL261 tumors [5] = experiment: In vivo panning of T7 phage peptide library: phage recovered from irradiated GL261 tumors; set-up: species or system mice; conditions: Experiment A, 3 Gy; for Phage Recovered from GL261 tumors: number of sequenced phage after six rounds; for Phage Recovered from GL261 tumors (Frequency): six rounds
Description: as §3, §1, §4, §2

[6] = test system: B16F0 melanoma, lung carcinoma and glioma tumor models; experiment: Binding of phage-encoded peptides in additional tumor models; format: in vivo; conditions: phage encoding the peptide
Excerpt: The binding properties of phage encoding HVGGSSV (SEQ ID NO: 1), […] (SEQ ID NO: 2), […] (SEQ ID NO: 3), and SVGSRV (SEQ ID NO: 4) were additionally characterized in a B16F0 melanoma model.

[7] = Experiment B, number of sequenced phage
[8] = Experiment A, number of sequenced phage after six rounds, 3 Gy

Cc1ccc(NC(=O)c2ccc(CN3CCN(C)CC3)cc2)cc1Nc1nccc(-c2cccnc2)n1 [GLEEVEC®]
Glioma nuclei stained positive with TUNEL stain (GL261 tumors [1]; TKI alone): 5%
Apoptotic nuclei (TUNEL) (GL261 tumors [1]; TKI followed by irradiation (4 Gy)): 18%

Cc1cc(C)c(/C=C2\C(=O)Nc3ccccc32)[nH]1 [SU5416]
Apoptosis within tumor vascular endothelium [2]: induced apoptosis within tumor vascular endothelium

Cc1[nH]c(/C=C2\C(=O)Nc3ccccc32)c(C)c1CCC(=O)O [SU6668]
Apoptosis within tumor vascular endothelium [2]: induced apoptosis within tumor vascular endothelium

Bibapcitide [^99mTc-labeled bibapcitide]
Tumor binding ([3]; administered immediately prior to radiation, 10 Gy or more): 4 of 4
Localization to tumor ([3]; administered within one hour following radiation): failed to show localization
Specificity of binding ([3]; clinical study, general finding): non-specific binding
Binding to responding tumors in dose de-escalation study ([3]; radiation dose reduced to 5 Gy): not sufficient
Binding in second neoplasms not treated with radiation ([3]; two patients, non-responding tumors): not observed

GSRV (conserved subsequence) [conserved motif within peptides identified by in vivo panning]
Frequency of Recovery of conserved sequence (LLC and GL261 tumors): 6%

GSSV (conserved subsequence) [conserved motif within peptides identified by in vivo panning]
Phage recovered from irradiated tumors (LLC and GL261 tumors; phage with peptide insert comprising the subsequence, no phage with wild type): 22-40 of 10^6 injected phage
Frequency of Recovery of conserved sequence (LLC and GL261 tumors): 58%

GSXV [conserved motif within peptides identified by in vivo panning]
Frequency of Recovery of conserved sequence (LLC and GL261 tumors): 80%

NSV (conserved sequence) [N-terminal NSV, conserved N-terminal motif, N encoded by the vector]
Frequency of Recovery of conserved sequence (LLC and GL261 tumors): 22%

NSXR [N-terminal NSXR, conserved N-terminal motif, N encoded by the vector]
Frequency of Recovery of conserved sequence (LLC and GL261 tumors): 39%

NXVG [N-terminal NXVG, conserved N-terminal motif, N encoded by the vector]
Frequency of Recovery of conserved sequence (LLC and GL261 tumors): 34%

RGDGSSV (also: biotin, site not given here) [tested as biotinylated peptide]
Frequency of Recovery of conserved sequence (LLC and GL261 tumors): 28%
Peptide binding in irradiated (responding) tumor ([4]; biotinylated peptide by tail vein immediately prior to irradiation, right tumor irradiated): accumulation throughout the lumen of responding tumors
Peptide binding in untreated control tumor ([4]; biotinylated peptide by tail vein, left tumor untreated internal control): near absence of binding

RGXGSXV [conserved motif in phage recovered from treated LLC tumors]
Frequency of sequence in phage recovered from treated LLC tumors (LLC tumors; treated LLC tumors): 41%

SGRKVGSGSSV (Peptide that binds to LLC and/or GL261 tumors) [peptide isolated by in vivo panning of a phage library]
Phage Recovered from LLC tumors (Frequency) (LLC tumors; Experiment B): (50%)
Phage Recovered from LLC tumors (LLC tumors; [7]): 7

SKEK (Peptide that binds to LLC and/or GL261 tumors) [peptide isolated by in vivo panning of a phage library]
Phage Recovered from LLC tumors (Frequency) (LLC tumors; Experiment B): (7%)
Phage Recovered from LLC tumors (LLC tumors; [7]): 1

SRKQGGTEV (Peptide that binds to LLC and/or GL261 tumors) [peptide isolated by in vivo panning of a phage library]
Phage Recovered from LLC tumors (Frequency) (LLC tumors; Experiment B): (7%)
Phage Recovered from LLC tumors (LLC tumors; [7]): 1

SVGSRV (Peptide that binds to LLC and/or GL261 tumors) [peptide isolated by in vivo panning of a phage library]
Phage Recovered from LLC tumors (LLC tumors; [8]): 1
Phage Recovered from LLC tumors (Frequency) (LLC tumors; Experiment A, six rounds, 3 Gy): (4%)
Phage Recovered from GL261 tumors (GL261 tumors [5]): 3
Phage Recovered from GL261 tumors (Frequency) (GL261 tumors [5]): (12%)
Tumor models within which the phage-encoded peptide bound [6]: bound within lung carcinoma and glioma

SVRGSGSGV (Peptide that binds to LLC and/or GL261 tumors) [peptide isolated by in vivo panning of a phage library]
Phage Recovered from LLC tumors (LLC tumors; [8]): 7
Phage Recovered from LLC tumors (Frequency) (LLC tumors; Experiment A, six rounds, 3 Gy): (28%)
Phage Recovered from GL261 tumors (GL261 tumors [5]): 0
Phage Recovered from GL261 tumors (Frequency) (GL261 tumors [5]): (0%)
Tumor models within which the phage-encoded peptide bound [6]: bound within glioma and melanoma

SVVRDGSEV (Peptide that binds to LLC and/or GL261 tumors) [peptide isolated by in vivo panning of a phage library]
Phage Recovered from LLC tumors (Frequency) (LLC tumors; Experiment B): (21%)
Phage Recovered from LLC tumors (LLC tumors; [7]): 3

SXRGXGS [conserved motif within peptides identified by in vivo panning]
Frequency of Recovery of conserved sequence (LLC and GL261 tumors): 28%
